Laboratory results from PubChem BioAssay (NCI).
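Values below derive from 48-hour exposures of cells grown in 96-well plates, with endpoints linearly interpolated between the two concentrations bracketing the appropriate inhibition level. TGI marks complete inhibition of growth.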

Experiments:
Assay in all cases: DTP human tumour cell line panel, 48 h
OVCAR-3 ovarian = tested on: OVCAR-3 ovarian
U251 CNS = tested on: U251 CNS
HT29 colon = tested on: HT29 colon
MOLT-4 leukemia = tested on: MOLT-4 leukemia
NCI-H23 lung = tested on: NCI-H23 lung
SW-620 colon = tested on: SW-620 colon
CAKI-1 renal = tested on: CAKI-1 renal
IGROV1 ovarian = tested on: IGROV1 ovarian
SF-539 CNS = tested on: SF-539 CNS
HCC-2998 colon = tested on: HCC-2998 colon
OVCAR-5 ovarian = tested on: OVCAR-5 ovarian
SK-MEL-5 melanoma = tested on: SK-MEL-5 melanoma

Cc1ccc(NC(=S)NNC(=O)c2cc(-c3ccccc3)nc3ccccc23)cc1
TGI (OVCAR-3 ovarian): 21.7 µM
TGI (U251 CNS): 20.2 µM
TGI (HT29 colon): 55 µM
TGI (MOLT-4 leukemia): 44.3 µM
TGI (NCI-H23 lung): 27.4 µM
TGI (SW-620 colon): 25.9 µM
TGI (CAKI-1 renal): 45.9 µM
TGI (IGROV1 ovarian): 36.7 µM
TGI (SF-539 CNS): 30.1 µM
TGI (HCC-2998 colon): 24.3 µM
TGI (OVCAR-5 ovarian): 31.3 µM
TGI (SK-MEL-5 melanoma): 35.3 µM

NC12Oc3cc(O)cc(O)c3C1(c1ccc(Cl)cc1)c1c(O)cc(O)cc1O2 (centres undefined)
TGI (OVCAR-3 ovarian): > 100 µM
TGI (U251 CNS): > 100 µM
TGI (HT29 colon): > 100 µM
TGI (MOLT-4 leukemia): > 100 µM
TGI (NCI-H23 lung): > 100 µM
TGI (SW-620 colon): > 100 µM
TGI (CAKI-1 renal): > 100 µM
TGI (IGROV1 ovarian): > 100 µM
TGI (SF-539 CNS): > 100 µM
TGI (HCC-2998 colon): > 100 µM
TGI (OVCAR-5 ovarian): > 100 µM
TGI (SK-MEL-5 melanoma): > 100 µM

CC(/C=N\NC(=S)N1CCCCC1)=N/NC(=S)N1CCCCC1
TGI (OVCAR-3 ovarian): 5.12 µM
TGI (U251 CNS): 13 µM
TGI (HT29 colon): 62.4 µM
TGI (MOLT-4 leukemia): > 100 µM
TGI (NCI-H23 lung): 19.2 µM
TGI (SW-620 colon): 14.7 µM
TGI (CAKI-1 renal): 10.7 µM
TGI (IGROV1 ovarian): 8.3 µM
TGI (SF-539 CNS): > 100 µM
TGI (HCC-2998 colon): 11.7 µM
TGI (OVCAR-5 ovarian): 21.8 µM
TGI (SK-MEL-5 melanoma): 3.86 µM

CC(NNC(=O)CC(=O)N(C(=O)c1ccccc1)c1ccc(Cl)cc1)c1cc2ccccc2oc1=O (centres undefined)
TGI (OVCAR-3 ovarian): > 10 µM
TGI (U251 CNS): > 10 µM
TGI (HT29 colon): > 10 µM
TGI (MOLT-4 leukemia): > 10 µM
TGI (NCI-H23 lung): > 10 µM
TGI (SW-620 colon): > 10 µM
TGI (CAKI-1 renal): > 10 µM
TGI (IGROV1 ovarian): > 10 µM
TGI (SF-539 CNS): > 10 µM
TGI (HCC-2998 colon): > 10 µM
TGI (OVCAR-5 ovarian): > 10 µM
TGI (SK-MEL-5 melanoma): > 10 µM

CC1C[C@]2(C)C(=O)Nc3ccccc3[C@@H]2Nc2ccccc21 (some centres undefined)
TGI (OVCAR-3 ovarian): 35.9 µM
TGI (HT29 colon): 30 µM
TGI (MOLT-4 leukemia): 59.2 µM
TGI (NCI-H23 lung): 54.8 µM
TGI (SW-620 colon): > 100 µM
TGI (CAKI-1 renal): 74.3 µM
TGI (IGROV1 ovarian): 78.2 µM
TGI (SF-539 CNS): 63.5 µM
TGI (HCC-2998 colon): 88.5 µM
TGI (OVCAR-5 ovarian): > 100 µM
TGI (SK-MEL-5 melanoma): 31.3 µM

O=[N+]([O-])c1ccc(S(=O)(=O)N=Ic2ccccc2)cc1
TGI (OVCAR-3 ovarian): > 100 µM
TGI (U251 CNS): > 100 µM
TGI (HT29 colon): > 100 µM
TGI (MOLT-4 leukemia): > 100 µM
TGI (NCI-H23 lung): > 100 µM
TGI (SW-620 colon): > 100 µM
TGI (CAKI-1 renal): > 100 µM
TGI (IGROV1 ovarian): > 100 µM
TGI (SF-539 CNS): > 100 µM
TGI (HCC-2998 colon): > 100 µM
TGI (OVCAR-5 ovarian): > 100 µM
TGI (SK-MEL-5 melanoma): > 100 µM

O=C1NN=C2C=C(c3ccc(Cl)cc3)CC(c3cccc(Cl)c3)C12 (centres undefined)
TGI (OVCAR-3 ovarian): > 100 µM
TGI (U251 CNS): 39.9 µM
TGI (HT29 colon): 51.4 µM
TGI (MOLT-4 leukemia): 52.9 µM
TGI (NCI-H23 lung): > 100 µM
TGI (SW-620 colon): > 100 µM
TGI (CAKI-1 renal): > 100 µM
TGI (IGROV1 ovarian): 59.1 µM
TGI (SF-539 CNS): 55.7 µM
TGI (HCC-2998 colon): 33.5 µM
TGI (OVCAR-5 ovarian): 75.7 µM
TGI (SK-MEL-5 melanoma): 39.9 µM

CSc1ncnc2c1cnn2CCCCO
TGI (OVCAR-3 ovarian): > 100 µM
TGI (U251 CNS): > 100 µM
TGI (HT29 colon): > 100 µM
TGI (MOLT-4 leukemia): > 100 µM
TGI (NCI-H23 lung): > 100 µM
TGI (SW-620 colon): > 100 µM
TGI (CAKI-1 renal): > 100 µM
TGI (IGROV1 ovarian): > 100 µM
TGI (SF-539 CNS): > 100 µM
TGI (HCC-2998 colon): > 100 µM
TGI (OVCAR-5 ovarian): > 100 µM
TGI (SK-MEL-5 melanoma): > 100 µM

C[C@@]12CCC3C1C=C1C(=O)c4cc(O)ccc4C(=O)[C@]1(O2)[C@@]3(C)C=O
TGI (OVCAR-3 ovarian): 12 µM
TGI (U251 CNS): 19 µM
TGI (HT29 colon): 20.9 µM
TGI (MOLT-4 leukemia): 12.9 µM
TGI (NCI-H23 lung): 13.5 µM
TGI (SW-620 colon): 12.9 µM
TGI (CAKI-1 renal): 13.7 µM
TGI (IGROV1 ovarian): 19.6 µM
TGI (SF-539 CNS): 12.3 µM
TGI (HCC-2998 colon): 9.74 µM
TGI (OVCAR-5 ovarian): 26.3 µM
TGI (SK-MEL-5 melanoma): 16.1 µM

N#C/C(N)=C(\C#N)NC=NCc1ccccc1
TGI (OVCAR-3 ovarian): > 100 µM
TGI (U251 CNS): > 100 µM
TGI (HT29 colon): > 100 µM
TGI (MOLT-4 leukemia): > 100 µM
TGI (NCI-H23 lung): > 100 µM
TGI (SW-620 colon): > 100 µM
TGI (CAKI-1 renal): > 100 µM
TGI (IGROV1 ovarian): > 100 µM
TGI (SF-539 CNS): > 100 µM
TGI (HCC-2998 colon): > 100 µM
TGI (OVCAR-5 ovarian): > 100 µM
TGI (SK-MEL-5 melanoma): > 100 µM
